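Grown in 96-well plates, cells were treated for 48 hours with each compound at five concentrations. Insufficient inhibition: endpoint recorded as highest concentration tested. GI50: concentration for 50% inhibition of growth.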 Active and inactive are the calls of the source. No stated cut-off is given here; in the data, active = GI50 up to about 1.1 µM and inactive = higher.
Experiments:
Assay in all cases: NCI anticancer screen, dose series, 48 h
[1] = test system: Malme-3M
[2] = test system: HOP-92
[3] = test system: CCRF-CEM
[4] = test system: IGROV-1
[5] = test system: OVCAR-3
[6] = test system: HT-29
[7] = test system: SF-268
[8] = test system: RXF 393
[9] = test system: EKVX
[10] = test system: HCC 2998
[11] = test system: COLO 205
[12] = test system: SK-MEL-5
[13] = test system: U-251
[14] = test system: KM12

Measured: GI50

CP(=O)(CCSc1ccccc1)c1ccccc1 (centres undefined)
inactive: [1] > 100 µM | [2] > 100 µM | [3] > 100 µM | [4] > 100 µM | [5] > 100 µM | [6] > 100 µM | [7] > 100 µM | [8] > 100 µM | [9] > 100 µM | [10] > 100 µM | [11] > 100 µM | [12] > 100 µM | [13] > 100 µM

O=C(CSc1nnc(Cc2ccccc2)o1)Nc1ccc([N+](=O)[O-])cc1
inactive: [1] > 100 µM | [3] > 100 µM | [4] > 100 µM | [5] > 100 µM | [6] 48 µM | [14] > 100 µM | [7] > 100 µM | [8] > 100 µM | [10] > 100 µM | [11] > 100 µM | [12] > 100 µM | [13] > 100 µM

N=C(N)N/N=C(/c1nc2ccc([N+](=O)[O-])cc2[nH]c1=O)C(O)c1ccc([N+](=O)[O-])cc1 (centres undefined)
inactive: [1] 83.8 µM | [2] > 100 µM | [3] > 100 µM | [4] > 100 µM | [5] 94.2 µM | [6] 54.1 µM | [14] 36.1 µM | [7] > 100 µM | [8] > 100 µM | [10] 28.5 µM | [11] 79.8 µM | [12] 37.5 µM | [13] 67.3 µM

CSC(C1c2ccccc2N(C)c2[nH]c(=O)n(C)c(=O)c21)S(=O)(=O)c1ccc(C)cc1 (centres undefined)
inactive: [1] > 100 µM | [2] > 100 µM | [3] 33.3 µM | [4] > 100 µM | [5] > 100 µM | [6] > 100 µM | [7] > 100 µM | [9] 33.6 µM | [10] > 100 µM | [11] > 100 µM | [12] > 100 µM | [13] > 100 µM

O=C1C2Nc3ccccc3SC2C(=O)N1c1ccccc1C(F)(F)F (centres undefined)
inactive: [1] 19.7 µM | [2] 25 µM | [3] 15.2 µM | [4] 54.1 µM | [5] 22.3 µM | [6] 26.4 µM | [14] 10.1 µM | [7] 41.1 µM | [8] 7.45 µM | [9] 54.8 µM | [10] 16.7 µM | [12] 12 µM | [13] 19.1 µM

CCOC(=O)/C(=C\c1cccs1)P(=O)(OCC)OCC
inactive: [1] 22.7 µM | [2] 27.6 µM | [3] 29.9 µM | [5] 19.8 µM | [6] 20.6 µM | [14] 17.1 µM | [7] 24.1 µM | [8] 15.1 µM | [9] 23.8 µM | [10] 18.4 µM | [11] 16 µM | [12] 17 µM | [13] 20.2 µM

CC(=O)OC1[C@H]2c3cc4c(cc3CN3CCC(C[C@@H]1OC(C)=O)C23)OCO4 (some centres undefined)
inactive: [1] > 75 µM | [3] > 75 µM | [4] > 75 µM | [5] > 75 µM | [6] > 75 µM | [14] > 75 µM | [7] > 75 µM | [8] > 75 µM | [9] > 75 µM | [10] > 75 µM | [11] > 75 µM | [13] > 75 µM

FC(F)(F)c1nc(-c2ccccc2)oc1Sc1oc(-c2ccccc2)nc1C(F)(F)F
inactive: [1] > 100 µM | [2] 39.1 µM | [3] > 100 µM | [4] > 100 µM | [5] > 100 µM | [6] > 100 µM | [14] > 100 µM | [7] 52.5 µM | [8] 24.7 µM | [9] > 100 µM | [10] > 100 µM | [11] > 100 µM | [12] > 100 µM | [13] 54.6 µM

COc1ccc(NCC#N)cc1
inactive: [1] > 100 µM | [2] > 100 µM | [3] > 100 µM | [4] > 100 µM | [5] > 100 µM | [6] > 100 µM | [14] > 100 µM | [7] > 100 µM | [8] > 100 µM | [9] > 100 µM | [10] > 100 µM | [11] > 100 µM | [12] > 100 µM | [13] > 100 µM

Cn1cc2c(n1)c(N/N=C/c1ccccc1)nn1nnnc21
inactive: [1] > 100 µM | [2] > 100 µM | [3] > 100 µM | [4] > 100 µM | [5] > 100 µM | [6] > 100 µM | [7] > 100 µM | [8] > 100 µM | [9] > 100 µM | [10] > 100 µM | [11] > 100 µM | [12] > 100 µM | [13] > 100 µM
